Laboratory results from patent US5250695A, “Use of specific counteranions to modify the solubility of tetrazolium salts” (Miles Inc., priority 1992, dated 1993).

Key:
[1] = cited from earlier work
[2] = Solubility testing of tetrazolium salts in methanol and water (Table I); settings: for solubility in methanol (in words) / solubility in water (in words): discussion of Table I
[3] = Impregnation of zwitterionic nylon fabric with tetrazolium salt and ATP; HPLC of methanol extract, extraction into aqueous impregnation solution (Example II); settings: 1 liter remaining after aqueous ATP impregnation
Text: The solution also contained some formazan which was not quantified.
4 L×0.08 moles/L=0.32 moles of tetrazolium salt impregnated into the membrane during first treatment.
1 L×0.006 moles/L=0.006 moles extracted during aqueous impregnation.

[4] = listed as DCT tetrafluoroborate

SMILES | Solubility, Methanol [2] | Solubility, Water [2] | further results
C=C1CC(C)C2C3Cc4ccc(O)cc4C2(CCN3CC2CCC2)C1 (stereo not drawn) [17-cyclobutylmethyl-3-hydroxy-862-methyl-6-methylene morphinane] |  |  | solubility on converting chloride salt to methanesulfonate ([1]; U.S. Pat. No. 4,334,071): enhancement of the solubility
COc1ccccc1-[n+]1nc(-c2ccc3c(c2)OCO3)nn1-c1nc(C(F)F)c(Cl)s1 [DCMT BF4^-, 2-(4-difluoromethyl-5-chlorothiazol-2-yl)-3-(2 methoxyphenyl)-5-(3,4-methylenedioxyphenyl) tetrazolium] | 12.9 m mol L | 2.7 m mol L | 
COc1ccccc1-[n+]1nc(-c2ccc3c(c2)OCO3)nn1-c1nc(C(F)F)c(Cl)s1 [DCMT Br^-, 2-(4-difluoromethyl-5-chlorothiazol-2-yl)-3-(2 methoxyphenyl)-5-(3,4-methylenedioxyphenyl) tetrazolium] | 24 m mol L | < 1 m mol L | 
COc1ccccc1-[n+]1nc(-c2ccc3c(c2)OCO3)nn1-c1nc(C(F)F)c(Cl)s1 [DCMT BuSO3^-, 2-(4-difluoromethyl-5-chlorothiazol-2-yl)-3-(2 methoxyphenyl)-5-(3,4-methylenedioxyphenyl) tetrazolium] | > 700 m mol L | 15 m mol L | 
COc1ccccc1-[n+]1nc(-c2ccc3c(c2)OCO3)nn1-c1nc(C(F)F)c(Cl)s1 [DCMT MeSO3^-, 2-(4-difluoromethyl-5-chlorothiazol-2-yl)-3-(2 methoxyphenyl)-5-(3,4-methylenedioxyphenyl) tetrazolium] | > 760 m mol L | 248 m mol L | solubility in methanol (in words) [2]: greatly enhanced; solubility in water (in words) [2]: greatly enhanced
COc1ccccc1-[n+]1nc(-c2ccc3c(c2)OCO3)nn1-c1nc(C(F)F)c(Cl)s1 [DCMT PeSO3^-, 2-(4-difluoromethyl-5-chlorothiazol-2-yl)-3-(2 methoxyphenyl)-5-(3,4-methylenedioxyphenyl) tetrazolium] | > 700 m mol L | 2.6 m mol L | 
COc1ccccc1-[n+]1nc(-c2ccc3c(c2)OCO3)nn1-c1nc(C(F)F)c(Cl)s1 [DCMT PrSO3^-, 2-(4-difluoromethyl-5-chlorothiazol-2-yl)-3-(2 methoxyphenyl)-5-(3,4-methylenedioxyphenyl) tetrazolium] | > 760 m mol L | 23 m mol L | 
COc1cc(-[n+]2nc(-c3ccc4c(c3)OCO4)nn2-c2nc(C(F)F)c(Cl)s2)cc(OC)c1OC [DCT BF4^-, 2-(4-difluoromethyl-5-chlorothiazol-2-yl)-3-(3,4,5-trimethoxyphenyl)-5-(3,4-methylenedioxyphenyl) tetrazolium] | < 16 m mol L | < 0.5 m mol L | solubility in methanol (in words) [2, 4]: only marginally soluble; solubility in water (in words) [2, 4]: only marginally soluble
COc1cc(-[n+]2nc(-c3ccc4c(c3)OCO4)nn2-c2nc(C(F)F)c(Cl)s2)cc(OC)c1OC [DCT Br^-, 2-(4-difluoromethyl-5-chlorothiazol-2-yl)-3-(3,4,5-trimethoxyphenyl)-5-(3,4-methylenedioxyphenyl) tetrazolium] | 10 m mol L | < 1 m mol L | solubility in methanol (in words) ([2]; listed as DCT bromide): only marginally soluble; solubility in water (in words) ([2]; listed as DCT bromide): only marginally soluble
COc1cc(-[n+]2nc(-c3ccc4c(c3)OCO4)nn2-c2nc(C(F)F)c(Cl)s2)cc(OC)c1OC [DCT BzSO3^-, 2-(4-difluoromethyl-5-chlorothiazol-2-yl)-3-(3,4,5 trimethoxyphenyl)-(5-(3,4-methylenedioxyphenyl)tetrazolium benzenesulfonate] | > 550 m mol L |  | solubility in methanol (in words) ([2]; listed as DCT benzenesulfonate): high methanol solubility; tetrazolium salt extracted from the treated membrane into remaining aqueous solution [3]: 3 mM
COc1cc(-[n+]2nc(-c3ccc4c(c3)OCO4)nn2-c2nc(C(F)F)c(Cl)s2)cc(OC)c1OC [DCT EtSO3^-, 2-(4-difluoromethyl-5-chlorothiazol-2-yl)-3-(3,4,5-trimethoxyphenyl)-5-(3,4-methylenedioxyphenyl) tetrazolium] | > 600 m mol L | 26 m mol L | 
COc1cc(-[n+]2nc(-c3ccc4c(c3)OCO4)nn2-c2nc(C(F)F)c(Cl)s2)cc(OC)c1OC [DCT MeSO3^-, 2-(4-difluoromethyl-5-chlorothiazol-2-yl)-3-(3,4,5-trimethoxyphenyl)-5-(3,4-methylenedioxyphenyl) tetrazolium] | > 500 m mol L | 73 m mol L | solubility in methanol (in words) ([2]; listed as DCT methanesulfonate): highly soluble; solubility in water (in words) ([2]; listed as DCT methanesulfonate): highly soluble
COc1cc(-[n+]2nc(-c3ccc4c(c3)OCO4)nn2-c2nc(C(F)F)c(Cl)s2)cc(OC)c1OC [DCT NO3^-, 2-(4-difluoromethyl-5-chlorothiazol-2-yl)-3-(3,4,5-trimethoxyphenyl)-5-(3,4-methylenedioxyphenyl) tetrazolium] | 22 m mol L | 2 m mol L | solubility in methanol (in words) ([2]; listed as DCT nitrate): only marginally soluble; solubility in water (in words) ([2]; listed as DCT nitrate): only marginally soluble
COc1cc(-[n+]2nc(-c3ccc4c(c3)OCO4)nn2-c2nc(C(F)F)c(Cl)s2)cc(OC)c1OC [DCT PrSO3^-, 2-(4-difluoromethyl-5-chlorothiazol-2-yl)-3-(3,4,5-trimethoxyphenyl)-5-(3,4-methylenedioxyphenyl) tetrazolium] | > 650 m mol L | 16 m mol L | 
O=[N+]([O-])c1ccc(-n2nc(-c3ccccc3)n[n+]2-c2ccc(I)cc2)cc1 [INT Cl^-, 2-(4-iodophenyl)-3-(4-nitrophenyl)-5-phenyl tetrazolium, reference compound] |  | 3 m mol L | 
O=[N+]([O-])c1ccc(-n2nc(-c3ccccc3)n[n+]2-c2ccc(I)cc2)cc1 [INT MeSO3^-, 2-(4-iodophenyl)-3-(4-nitrophenyl)-5-phenyl tetrazolium] |  | 35 m mol L | 
COc1ccc(-c2nn(-c3nc4c(cc(OC)c5ccccc54)s3)[n+](-c3cc(OC)c(OC)c(OC)c3)n2)cc1 [MTM BzSO3, 2-(5-methoxynaphtho[1,2-d]thiazol-2-yl)-3-(3,4,5-trimethoxyphenyl)-5-(4-methoxyphenyl) tetrazolium] | 19 m mol L |  | solubility in methanol (in words) ([2]; listed as MTM benzenesulfonate): substantially greater than the nitrate
COc1ccc(-c2nn(-c3nc4c(cc(OC)c5ccccc54)s3)[n+](-c3cc(OC)c(OC)c(OC)c3)n2)cc1 [MTM MeSO3^-, 2-(5-methoxynaphtho[1,2-d]thiazol-2-yl)-3-(3,4,5-trimethoxyphenyl)-5-(4-methoxyphenyl) tetrazolium] | 48 m mol L |  | solubility in methanol (in words) ([2]; listed as MTM methanesulfonate): substantially increased
COc1ccc(-c2nn(-c3nc4c(cc(OC)c5ccccc54)s3)[n+](-c3cc(OC)c(OC)c(OC)c3)n2)cc1 [MTM NO3^-, 2-(5-methoxynaphtho[1,2-d]thiazol-2-yl)-3-(3,4,5-trimethoxyphenyl)-5-(4-methoxyphenyl) tetrazolium] | 7.6 m mol L |  | 
COc1ccc(-c2nn(-c3nc4c(cc(OC)c5ccccc54)s3)[n+](-c3cc(OC)c(OC)c(OC)c3)n2)cc1 [MTM PrSO3^-, 2-(5-methoxynaphtho[1,2-d]thiazol-2-yl)-3-(3,4,5-trimethoxyphenyl)-5-(4-methoxyphenyl) tetrazolium] | 100 m mol L |  | solubility in methanol (in words) ([2]; listed as MTM propanesulfonate): substantially increased
CN1CC[C@]23c4c5ccc(OCc6ccccc6)c4O[C@H]2[C@@H](O)C=C[C@H]3[C@H]1C5 [benzylmorphine, reference compound] |  |  | water solubility after conversion to alkyl sulphonic acid salt ([1]; U.S. Pat. No. 1,892,019, methane or ethanesulfonic acid): increased water solubility
